{"source": "patent US20020086278A1", "about": "“CHROMOGENIC MEDIA CONTAINING BLOOD OR HEMIN” (priority 1999, published 2002)", "key": {"[1]": {"test_system": "Strep Grp C 12388", "assay": "Example 2: effect of incubation conditions on colony color formation", "assay_type": "cell-based, Streptococcus group C", "details": "0.004 g/plate, 24 h, CO2"}, "[2]": {"test_system": "S. milleri (stmi)", "assay": "Example 3: colony color on chromogenic TSA II with 5% sheep blood (chromogen in medium)", "assay_type": "cell-based"}, "[3]": {"test_system": "Group B Strep. 12386", "assay": "Example 1: growth and colony color on plates surface-spread with chromogen", "assay_type": "cell-based", "details": "for Color: Group B Strep 12386"}, "[4]": {"test_system": "S. agalactiae 6638", "assay": "Example 2: effect of incubation conditions on colony color formation", "assay_type": "cell-based, Streptococcus agalactiae", "details": "0.004 g/plate, 24 h, CO2"}, "[5]": {"test_system": "S. agalactiae BD11586", "assay": "Example 2: effect of incubation conditions on colony color formation", "assay_type": "cell-based, Streptococcus agalactiae", "details": "Chocolate II Agar, 0.004 g/plate; 24 h, CO2"}, "[6]": {"test_system": "S. agalactiae BD747", "assay": "Example 2: effect of incubation conditions on colony color formation", "assay_type": "cell-based, Streptococcus agalactiae", "details": "0.004 g/plate, 24 h, CO2"}, "[7]": {"test_system": "S. agalactiae 4768", "assay": "Example 2: effect of incubation conditions on colony color formation", "assay_type": "cell-based, Streptococcus agalactiae", "details": "0.004 g/plate, 24 h, CO2"}, "[8]": {"test_system": "S. agalactiae 13813", "assay": "Example 2: effect of incubation conditions on colony color formation", "assay_type": "cell-based, Streptococcus agalactiae", "details": "0.004 g/plate, 24 h, CO2"}, "[9]": {"test_system": "N. gonorrhoeae 35201", "assay": "Example 1: growth and colony color on plates surface-spread with chromogen", "assay_type": "cell-based", "details": "Summary of Table I; N. gonorrhoeae 35201"}, "[10]": {"test_system": "Strep Grp G 27961", "assay": "Example 2: effect of incubation conditions on colony color formation", "assay_type": "cell-based, Streptococcus group G", "details": "0.004 g/plate, 24 h, CO2"}, "[11]": {"test_system": "Strep Grp G 12394", "assay": "Example 2: effect of incubation conditions on colony color formation", "assay_type": "cell-based, Streptococcus group G", "details": "0.004 g/plate, 24 h, CO2"}, "[12]": {"test_system": "Aeromonas hydrophilia (aehy)", "assay": "Example 3: colony color on chromogenic TSA II with 5% sheep blood (chromogen in medium)", "assay_type": "cell-based", "details": "for Colony Color: CO2, 18 h"}, "[13]": {"test_system": "Entercoccus faecalis (enfa)", "assay": "Example 3: colony color on chromogenic TSA II with 5% sheep blood (chromogen in medium)", "assay_type": "cell-based", "details": "for Colony Color: CO2, 18 h"}}, "note": "“Also recorded” adds a separate entry of the source.", "data": [{"smiles": "O=C(O)[C@H]1O[C@@H](Oc2c[nH]c3ccc(Br)c(Cl)c23)[C@H](O)[C@@H](O)[C@@H]1O", "note": "[X-Glucuro, X-Glucuronide]", "values": [{"measurement": "Colony Color", "setting": "[1]; Chocolate II Agar", "value": "blue (d)"}, {"measurement": "Colony Color", "setting": "[1]; TSA II 5% Sheep Blood", "value": "blue (d)"}, {"measurement": "Colony Color (Summary)", "setting": "[2]; chromogenic TSA II with 5% Sheep Blood, 0.1 g/l, 2 strains tested", "value": 0}, {"measurement": "Colony Color on Various Chromogenic TSA II with 5% Sheep Blood", "setting": "[2]; stmi 6242, CO2, 18 h", "value": 0}, {"measurement": "Color", "setting": "[3]; Choc II", "value": "blue"}, {"measurement": "Substrates Producing Color", "setting": "[3]; Summary of Table I, Group B Strep. 12386", "value": "Glucuro"}, {"measurement": "Color", "setting": "[3]; TSA II 5SB", "value": "blue with beta hemolysis; also recorded: blue (a)"}, {"measurement": "Color", "setting": "[3]; TSA Plain", "value": "blue"}, {"measurement": "Colony Color", "setting": "[4]; Chocolate II Agar", "value": "blue (m)"}, {"measurement": "Colony Color", "setting": "[4]; TSA II 5% Sheep Blood", "value": "blue (m)"}, {"measurement": "Colony Color", "setting": "[5]", "value": "blue (vl)"}, {"measurement": "Colony Color", "setting": "[6]; Chocolate II Agar", "value": "blue (l)"}, {"measurement": "Colony Color", "setting": "[6]; TSA II 5% Sheep Blood", "value": "grey blue"}, {"measurement": "Colony Color", "setting": "[7]; Chocolate II Agar", "value": "blue (l)"}, {"measurement": "Colony Color", "setting": "[7]; TSA II 5% Sheep Blood", "value": "blue (l)"}, {"measurement": "Colony Color", "setting": "[8]; Chocolate II Agar", "value": "blue (d)"}, {"measurement": "Colony Color", "setting": "[8]; TSA II 5% Sheep Blood", "value": "blue (d)"}, {"measurement": "Substrates Producing Growth Inhibition", "setting": "[9]", "value": "X-Glucuro"}, {"measurement": "Colony Color", "setting": "[10]; Chocolate II Agar", "value": "blue (d)"}, {"measurement": "Colony Color", "setting": "[10]; TSA II 5% Sheep Blood", "value": "blue (d)"}, {"measurement": "Colony Color", "setting": "[11]; Chocolate II Agar", "value": "blue (d)"}, {"measurement": "Colony Color", "setting": "[11]; TSA II 5% Sheep Blood", "value": "grey blue"}, {"measurement": "Colony Color", "setting": "[12]; aehy 7965", "value": 0}, {"measurement": "Colony Color", "setting": "[12]; aehy 7966", "value": 0}, {"measurement": "Colony Color", "setting": "[12]; aehy 49847", "value": 0}, {"measurement": "Colony Color (Summary)", "setting": "[12]; chromogenic TSA II with 5% Sheep Blood, 0.1 g/l, 3 strains tested", "value": 0}, {"measurement": "Colony Color (Summary)", "setting": "[13]; chromogenic TSA II with 5% Sheep Blood, 0.1 g/l, 6 strains tested", "value": 0}, {"measurement": "Colony Color", "setting": "[13]; enfa 597", "value": 0}, {"measurement": "Colony Color", "setting": "[13]; enfa 10741", "value": 0}, {"measurement": "Colony Color", "setting": "[13]; enfa 12953", "value": 0}, {"measurement": "Colony Color", "setting": "[13]; enfa 14506", "value": 0}, {"measurement": "Colony Color", "setting": "[13]; enfa 29212", "value": 0}]}]}
